Results from patent publication US11191754B2, “Inhibitors of nucleotidyl transferases and uses in herpes and hepatitis viral infections therefor” (Saint Louis University, priority 2015, dated 2021).

Target: T1, human RNaseH1 (Homo sapiens, UniProt O60930)
T1 construct: made in house; host or cells: E. coli
T1 sequence (O60930 1-286): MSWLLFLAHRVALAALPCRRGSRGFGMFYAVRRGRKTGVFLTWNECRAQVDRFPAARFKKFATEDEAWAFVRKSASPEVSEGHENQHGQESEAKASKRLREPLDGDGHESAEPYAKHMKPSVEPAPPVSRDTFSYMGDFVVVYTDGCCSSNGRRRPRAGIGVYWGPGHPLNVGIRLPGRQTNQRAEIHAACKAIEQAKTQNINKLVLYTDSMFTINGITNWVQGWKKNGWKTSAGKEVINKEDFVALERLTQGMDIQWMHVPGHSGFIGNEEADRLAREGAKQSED
Experiment: Human RNaseH1 oligonucleotide-directed RNA cleavage assay
Assay type: biochemical
Settings: recombinant human RNaseH1
Method: Recombinant HBV RNaseH and human RNaseH1 were expressed in E. coli and partially purified by nickel-affinity chromatography as previously described in Tavis, et al. (2013). The enriched extracts were dialyzed into 50 mM HEPES pH 7.3, 300 mM NaCl, 20% glycerol, and 5 mM DTT and stored in liquid nitrogen.
RNaseH activity was measured using an oligonucleotide-directed RNA cleavage assay as previously described in Hu, et al., Tavis, et al., and Cai, et al. (2013; 2013; and 2014, respectfully). Briefly, 6 μL protein extract was mixed on ice with an internally ^32P-labeled 264 nt RNA derived from the Duck Hepatitis B Virus genome (DRF+ RNA) plus 3 μg oligonucleotide D2507- or its inverse-complement oligonucleotide D2526+ as a negative control. This mixture was incubated with test compounds in 50 mM Tris pH 8.0, 190 mM NaCl, 5 mM MgCl2, 3.5 mM DTT, 0.05% NP40, 6% glycerol, and 1% DMSO at 42° C. for 90 minutes. Cleavage products were resolved by denaturing polyacrylamide gel electrophoresis, detected by autoradiography, and quantified using ImageJ. Non-specific background values were determined from the incorrect oligonucleotide negative control lane and subtracted from all experimental values. IC50 values were then calculated with GraphPad Prism using three-parameter log(inhibitor) vs. response non-linear curve fitting with the curve minimum set to zero to reflect background subtraction.

Compound: Cc1cc(CC(C)CC(C)(C)C)n(O)c(=O)c1 (stereo not shown) [#191, Piroctone olamine]
- Anti-human RNase H1: did not inhibit
